Test [1] has as its target T1, Bcl-2-related protein A1 (Mus musculus, UniProt Q07440).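 Also: confirmatory dose–response counterscreen on Bfl-1, used to check hits from a UBC13 polyubiquitin inhibitor campaign.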
T1 sequence (Q07440 whole entry): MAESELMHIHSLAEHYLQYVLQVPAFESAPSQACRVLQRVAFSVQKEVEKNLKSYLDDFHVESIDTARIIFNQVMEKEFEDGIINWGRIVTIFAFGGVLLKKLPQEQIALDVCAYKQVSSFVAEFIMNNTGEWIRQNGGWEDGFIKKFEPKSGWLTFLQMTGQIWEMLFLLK
In kind it is functional.

The target of test [2] is T2, Ubiquitin-conjugating enzyme E2 N (Homo sapiens, UniProt P61088).
T2 sequence (P61088 whole entry): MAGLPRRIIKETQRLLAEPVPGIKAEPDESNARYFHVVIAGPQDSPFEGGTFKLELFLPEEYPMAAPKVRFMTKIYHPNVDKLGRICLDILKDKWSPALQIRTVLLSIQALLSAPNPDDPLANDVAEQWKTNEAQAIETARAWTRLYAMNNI
In kind it is functional.

Test [3] has as its target T2, Ubiquitin-conjugating enzyme E2 N. In kind it is functional. This is another data set of the same source.
The target in test [4] is T3, Type-1 angiotensin II receptor (Homo sapiens, UniProt P30556).
T3 sequence (P30556 whole entry): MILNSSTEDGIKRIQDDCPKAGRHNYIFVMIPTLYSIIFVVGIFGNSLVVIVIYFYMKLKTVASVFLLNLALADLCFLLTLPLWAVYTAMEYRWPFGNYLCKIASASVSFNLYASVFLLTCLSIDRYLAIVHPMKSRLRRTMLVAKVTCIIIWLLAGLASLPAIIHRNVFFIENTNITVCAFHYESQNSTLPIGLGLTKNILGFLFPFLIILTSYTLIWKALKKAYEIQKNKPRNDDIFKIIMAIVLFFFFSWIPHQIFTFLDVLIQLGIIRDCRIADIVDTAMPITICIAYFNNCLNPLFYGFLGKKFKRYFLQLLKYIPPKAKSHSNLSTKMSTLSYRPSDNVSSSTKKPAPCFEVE
Description: agonist activity at AGTR1 – cell-based, uHTS hits, selectivity assay for APJ receptor agonist project, dose response (AID 488865).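 Also: beta-arrestin recruitment to AT1 measured by enzyme fragment complementation luminescence.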 In kind it is functional.

Test [5] addresses T4, DNA repair protein RAD52 homolog (Homo sapiens, UniProt P43351).
T4 sequence (P43351 whole entry): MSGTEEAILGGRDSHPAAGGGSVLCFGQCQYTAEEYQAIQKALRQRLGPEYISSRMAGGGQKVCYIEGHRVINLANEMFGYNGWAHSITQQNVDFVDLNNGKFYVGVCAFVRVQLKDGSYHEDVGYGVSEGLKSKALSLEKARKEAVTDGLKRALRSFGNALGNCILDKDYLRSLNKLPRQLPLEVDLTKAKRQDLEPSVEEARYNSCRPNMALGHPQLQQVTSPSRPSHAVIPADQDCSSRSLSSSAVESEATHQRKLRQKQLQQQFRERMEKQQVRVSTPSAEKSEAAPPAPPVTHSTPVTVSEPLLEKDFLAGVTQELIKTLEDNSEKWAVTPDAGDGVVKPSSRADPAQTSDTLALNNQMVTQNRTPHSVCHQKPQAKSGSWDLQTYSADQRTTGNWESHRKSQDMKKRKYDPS
In kind it is functional, biochemical.

The target in test [6] is T5, Delta-type opioid receptor (Homo sapiens, UniProt P41143). Kind of test: HTS Image-Based Screen for Antagonists of the DOR Receptor. [Related pubchem assays (depositor defined):AID1777, AID1785, AID1786, AID2133]. In kind it is functional.
T5 sequence (P41143 whole entry): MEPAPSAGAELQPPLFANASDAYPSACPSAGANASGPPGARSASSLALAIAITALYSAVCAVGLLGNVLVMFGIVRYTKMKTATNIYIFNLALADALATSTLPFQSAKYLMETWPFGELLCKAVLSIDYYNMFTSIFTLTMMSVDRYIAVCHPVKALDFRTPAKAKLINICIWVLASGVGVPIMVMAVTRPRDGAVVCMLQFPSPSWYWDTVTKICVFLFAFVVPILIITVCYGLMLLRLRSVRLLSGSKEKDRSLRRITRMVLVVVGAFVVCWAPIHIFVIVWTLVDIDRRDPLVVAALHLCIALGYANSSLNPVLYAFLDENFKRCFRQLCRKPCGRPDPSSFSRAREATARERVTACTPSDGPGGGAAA
In test [7] the target is Mu-type opioid receptor (Homo sapiens, UniProt P35372). Description: HTS Image-Based Screen for Agonists of the MOR Receptor. [Related pubchem assays (depositor defined):AID1777, AID1785, AID1786, AID2133]. In kind it is functional.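 Also: imaging of beta-arrestin GFP recruitment into spots after receptor activation.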
Sequence of Mu-type opioid receptor (P35372 whole entry): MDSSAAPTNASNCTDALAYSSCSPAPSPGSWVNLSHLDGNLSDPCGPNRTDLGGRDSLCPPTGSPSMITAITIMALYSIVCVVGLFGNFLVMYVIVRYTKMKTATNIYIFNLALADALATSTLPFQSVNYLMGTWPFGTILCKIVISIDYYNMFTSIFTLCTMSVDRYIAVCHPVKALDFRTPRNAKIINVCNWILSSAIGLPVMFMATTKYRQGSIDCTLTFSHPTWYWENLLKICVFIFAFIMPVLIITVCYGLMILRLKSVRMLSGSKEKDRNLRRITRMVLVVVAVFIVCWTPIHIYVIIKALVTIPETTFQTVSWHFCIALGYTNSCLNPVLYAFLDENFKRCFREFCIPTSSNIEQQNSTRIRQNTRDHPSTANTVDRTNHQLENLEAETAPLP
For test [8], the target named is T5, Delta-type opioid receptor. Description: HTS Image-Based Screen for Agonists of the DOR Receptor. [Related pubchem assays (depositor defined):AID1777, AID1786, AID2133]. In kind it is functional.
Test [9] has as its target T6, Kappa-type opioid receptor (Homo sapiens, UniProt P41145). In kind it is functional.
Test [10] has as its target Beta-galactosidase (Escherichia coli, UniProt Q8VNN2). In kind it is functional.
The target of test [11] is T6, Kappa-type opioid receptor. In kind it is functional. This is another data set of the same source.
The target of test [12] is T7, G-protein coupled receptor 35 (Homo sapiens, UniProt Q9HC97). Description: SAR analysis of Agonists of the GPR35 Receptor using an Image-Based Assay - Set 4. [Related pubchem assays (depositor defined):AID2013, AID2026]. In kind it is functional.
T7 sequence (Q9HC97 whole entry): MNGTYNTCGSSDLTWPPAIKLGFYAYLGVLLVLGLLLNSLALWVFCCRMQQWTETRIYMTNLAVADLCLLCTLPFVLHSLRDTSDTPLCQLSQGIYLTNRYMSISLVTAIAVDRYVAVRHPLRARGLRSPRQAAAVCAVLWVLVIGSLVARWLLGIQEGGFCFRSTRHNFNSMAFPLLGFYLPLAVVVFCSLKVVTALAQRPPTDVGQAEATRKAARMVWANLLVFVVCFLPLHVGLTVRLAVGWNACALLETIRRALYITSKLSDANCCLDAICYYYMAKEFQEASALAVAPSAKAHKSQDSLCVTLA
Test [13] addresses T8, Cannabinoid receptor 1 (Homo sapiens, UniProt P21554). Description: SAR analysis of agonists of the Cannabinoid Receptor 1 using an Image-Based Assay - Set 4. [Related pubchem assays (depositor defined):AID2013, AID2026]. In kind it is functional.
In test [14] the target is T7, G-protein coupled receptor 35. Description: SAR analysis of Antagonists of the GPR35 Receptor using an Image-Based Assay - Set 6. [Related pubchem assays (depositor defined):AID2013, AID2026]. In kind it is functional.
Test [15] concerns the target T8, Cannabinoid receptor 1. Description: SAR analysis of antagonists of the Cannabinoid Receptor 1 using an Image-Based Assay - Set 4. [Related pubchem assays (depositor defined):AID2013, AID2026]. In kind it is functional.
The target in test [16] is G-protein coupled receptor 55 (Homo sapiens, UniProt Q9Y2T6). Description: SAR Analysis of Selective Antagonists of GPR55 using an Image-Based Assay - Set 4. [Related pubchem assays (depositor defined):AID2013, AID2026]. In kind it is functional.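 Also: antagonism of response to 5 µM lysophosphatidylinositol agonist.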
Sequence of G-protein coupled receptor 55 (Q9Y2T6 whole entry): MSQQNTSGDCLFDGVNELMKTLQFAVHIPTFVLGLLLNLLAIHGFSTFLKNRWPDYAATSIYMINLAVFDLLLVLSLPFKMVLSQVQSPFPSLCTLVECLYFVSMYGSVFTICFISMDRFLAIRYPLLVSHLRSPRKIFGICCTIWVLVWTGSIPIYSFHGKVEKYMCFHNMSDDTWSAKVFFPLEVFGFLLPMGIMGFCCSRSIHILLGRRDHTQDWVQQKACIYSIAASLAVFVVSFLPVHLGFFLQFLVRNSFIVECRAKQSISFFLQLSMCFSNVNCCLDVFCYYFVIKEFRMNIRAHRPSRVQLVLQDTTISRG
Test [17] concerns the target T9, Cannabinoid receptor 2 (Homo sapiens, UniProt P34972). Kind of test: SAR analysis of antagonists of the Cannabinoid Receptor 2 using an Image-Based Assay - Set 3. [Related pubchem assays (depositor defined):AID2013, AID2026]. In kind it is functional.
Test [18] has as its target T9, Cannabinoid receptor 2. Kind of test: SAR analysis of agonists of the Cannabinoid Receptor 2 using an Image-Based Assay - Set 3. [Related pubchem assays (depositor defined):AID2013, AID2026]. In kind it is functional.

Activity calls are given as the source filed them.

As a reminder, the IC50 is the concentration needed to halve the response being measured. What is called EC50 is the concentration at which the effect is half-maximal. For orientation: AC50 means the concentration at which the activity in the assay is half-maximal.

T6 sequence (P41145 whole entry): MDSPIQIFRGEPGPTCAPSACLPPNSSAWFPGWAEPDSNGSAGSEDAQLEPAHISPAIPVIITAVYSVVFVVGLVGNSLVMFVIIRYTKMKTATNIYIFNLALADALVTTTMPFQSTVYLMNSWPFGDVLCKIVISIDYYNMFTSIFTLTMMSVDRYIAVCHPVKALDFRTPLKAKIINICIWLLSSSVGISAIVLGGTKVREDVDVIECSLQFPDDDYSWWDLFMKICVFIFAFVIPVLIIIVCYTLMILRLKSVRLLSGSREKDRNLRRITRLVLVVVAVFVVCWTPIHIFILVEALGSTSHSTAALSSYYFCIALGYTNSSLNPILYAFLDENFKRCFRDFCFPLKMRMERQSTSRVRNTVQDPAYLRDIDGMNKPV
T8 sequence (P21554 whole entry): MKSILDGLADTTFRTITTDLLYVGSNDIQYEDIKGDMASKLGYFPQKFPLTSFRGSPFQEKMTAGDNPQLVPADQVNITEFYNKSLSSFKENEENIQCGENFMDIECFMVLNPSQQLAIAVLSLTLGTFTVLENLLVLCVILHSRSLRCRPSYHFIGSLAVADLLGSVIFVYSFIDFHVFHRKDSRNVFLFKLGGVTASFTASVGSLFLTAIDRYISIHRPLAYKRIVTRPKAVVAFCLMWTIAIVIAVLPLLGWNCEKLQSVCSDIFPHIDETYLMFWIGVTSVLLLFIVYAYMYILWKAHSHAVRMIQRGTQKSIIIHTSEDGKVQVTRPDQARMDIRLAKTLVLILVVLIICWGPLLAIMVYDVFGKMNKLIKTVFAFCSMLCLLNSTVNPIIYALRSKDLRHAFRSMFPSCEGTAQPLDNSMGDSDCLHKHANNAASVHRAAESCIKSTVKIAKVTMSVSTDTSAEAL
T9 sequence (P34972 whole entry): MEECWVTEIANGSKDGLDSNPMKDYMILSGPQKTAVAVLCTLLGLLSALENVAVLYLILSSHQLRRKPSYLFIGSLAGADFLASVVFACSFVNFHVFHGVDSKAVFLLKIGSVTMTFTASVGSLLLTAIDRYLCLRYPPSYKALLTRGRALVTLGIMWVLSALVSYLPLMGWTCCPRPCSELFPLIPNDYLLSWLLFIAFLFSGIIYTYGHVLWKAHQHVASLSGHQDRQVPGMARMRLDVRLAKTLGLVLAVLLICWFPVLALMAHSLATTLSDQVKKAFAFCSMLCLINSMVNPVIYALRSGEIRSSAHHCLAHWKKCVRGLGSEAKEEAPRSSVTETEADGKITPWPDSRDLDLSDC
Sequence of Beta-galactosidase (Q8VNN2 whole entry): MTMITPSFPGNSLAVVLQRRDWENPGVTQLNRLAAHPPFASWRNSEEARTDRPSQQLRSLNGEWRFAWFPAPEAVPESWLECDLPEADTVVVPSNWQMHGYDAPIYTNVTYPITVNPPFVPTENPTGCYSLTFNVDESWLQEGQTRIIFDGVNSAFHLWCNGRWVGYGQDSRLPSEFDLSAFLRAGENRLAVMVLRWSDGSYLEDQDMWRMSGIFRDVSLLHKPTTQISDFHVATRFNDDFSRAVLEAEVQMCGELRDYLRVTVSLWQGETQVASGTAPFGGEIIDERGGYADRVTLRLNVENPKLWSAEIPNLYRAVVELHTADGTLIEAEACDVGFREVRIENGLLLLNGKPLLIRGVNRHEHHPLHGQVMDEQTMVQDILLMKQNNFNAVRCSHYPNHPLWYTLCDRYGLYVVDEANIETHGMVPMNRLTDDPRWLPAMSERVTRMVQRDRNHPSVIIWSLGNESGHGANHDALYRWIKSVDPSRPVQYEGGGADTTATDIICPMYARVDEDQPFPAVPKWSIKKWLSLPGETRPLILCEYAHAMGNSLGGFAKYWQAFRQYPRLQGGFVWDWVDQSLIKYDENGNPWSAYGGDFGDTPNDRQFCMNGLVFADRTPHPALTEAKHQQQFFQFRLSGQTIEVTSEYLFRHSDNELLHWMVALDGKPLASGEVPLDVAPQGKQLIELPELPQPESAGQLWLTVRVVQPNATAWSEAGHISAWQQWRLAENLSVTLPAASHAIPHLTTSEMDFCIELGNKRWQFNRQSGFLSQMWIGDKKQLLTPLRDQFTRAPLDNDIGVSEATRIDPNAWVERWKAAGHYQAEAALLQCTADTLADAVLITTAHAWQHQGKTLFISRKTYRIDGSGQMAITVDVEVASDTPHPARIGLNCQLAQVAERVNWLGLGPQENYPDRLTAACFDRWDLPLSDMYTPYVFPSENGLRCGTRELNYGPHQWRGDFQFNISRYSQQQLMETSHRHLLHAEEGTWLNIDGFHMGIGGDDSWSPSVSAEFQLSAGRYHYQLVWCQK

`CCOc1cccc2sc(N(CCCN(C)C)C(=O)c3ccc(S(=O)(=O)N4CCc5ccccc5C4)cc3)nc12`: the figures for the IC50 in test [1], in test [2] and in test [3] were > 20 µM (inactive), 8.33 µM (active) and 7.45 µM (active), respectively. Moreover, the EC50 in test [4] is > 100 µM (inactive). Moreover, the AC50 in test [5] was 21.2 µM (active).

As for `CCOc1ccc2nc(N3C(=O)CNC3=S)sc2c1`, the IC50 is > 32 µM (inactive) in test [6], 16.4 µM (active) in [9] and above 32 µM in [11]. For the same compound, the EC50 was > 32 µM (inactive) in [7], > 32 µM (inactive) in test [8] and > 31.5 µM (inactive) in test [10].

On to `N=c1c(C(=O)NCCN2CCOCC2)cc2c(=O)n3ccccc3nc2n1C1CCCC1`, for which the values for the EC50 in test [12], in test [13] and in [18] were > 32 µM (inactive), > 32 µM (inactive) and 8.59 µM (active), respectively. In addition, the IC50 in test [14], in [15], in test [16] and in [17] was > 32 µM (inactive) throughout.

The values above are taken from ChEMBL document CHEMBL1201862, “PubChem BioAssay data set” (2004).
